Marks after values point to notes of the source that are not given here. One block for each molecule: values may come before it.
Legend:
[1] = Stability of LUME and 97-63 in rat plasma (auto-sampler, bench top, freeze/thaw, freezer); type: in vitro ADME; details: n = 6
Description: All stability studies were conducted at two concentration levels, i.e., QC low and QC high, using six replicates at each concentration levels. […] The peak areas of analyte and IS obtained at initial cycle were used as the reference to determine the stability at subsequent points. The stability of LUME and 97–63 in the biomatrix during 6 hrs of exposure at room temperature in rat plasma (bench top (BT)) was determined at ambient temperature (25 ± 2°C). Freeze/thaw (FT) stability was evaluated up to three cycles. In each cycle, samples were frozen for at least 12 hrs at −70 ± 10°C. Freezer stability of both analytes in rat plasma was assessed by analysing the QC samples stored at −70 ± 10°C for at least 15 days. Samples were considered to be stable if assay values were within the acceptable limits of accuracy (i.e., ±15% deviation) and precision (i.e., ±15% RSD).

[2] = design: method as in PMID 21428247; details: cited from earlier work
[3] = Oral pharmacokinetic interaction study of LUME and 97-78 in rats (LC-ESI-MS/MS, non-compartmental analysis); type: in vivo, male Sprague–Dawley rats; details: for RB% (relative bioavailability = AUC coadmin/AUC control × 100): LUME 10 mg/kg oral with 97-78 70 mg/kg oral vs LUME alone; for AUC(0-inf) / AUC(0-t) / CL/F / Cmax / Tmax / Vd/F / half-life: male, Sprague-Dawley, rat, plasma, po, 10 mg/kg, rats n = 5, mean ± SD
Description: Study was performed in male Sprague–Dawley rats (n = 5, weight range 200–220 g). The rats were fasted overnight (14–16 hrs) prior to the experiment but given free access to water. Rats were divided into three groups (n = 5 each): two control groups (LUME, 10 mg/kg, oral, suspension in 0.25% sodium CMC and 97–78, 70 mg/kg, oral, suspension in 0.25% sodium CMC), and one co-administration group (70 mg/kg of oral 97–78 and 10 mg/kg of oral LUME). Blood samples (approximately 0.25 mL) were collected from the retro-orbital plexus into heparinized microfuge tubes at 0.25, 0.50, 1, 3, 6, 9, 11, 13, 15, 24, 48, 72, and 120 hrs post-dosing and plasma was harvested by centrifuging the blood at 15,000xg for 10 min and stored frozen at −70 ± 10°C until bio-analysis.
Plasma data were subjected to non-compartmental pharmacokinetics analysis using WinNonlin (version 5.1, Pharsight Corp, Mountain View, CA, USA). The observed maximum plasma concentration (Cmax) and the time to reach the maximum plasma concentration (Tmax) were obtained by visual inspection of the experimental data. Area under the plasma concentration-time curve from time zero to the last quantifiable concentration (AUC0-t) was calculated using linear trapezoidal rule. The total area under the plasma concentration–time curve from time zero to time infinity (AUC0-∞) was calculated as the sum of AUC0-t and Clast/kel, where, Clast represents the last quantifiable concentration and Kel represents the terminal phase rate constant. The apparent elimination half-life (t1/2) was calculated as 0.693/kel and the kel was estimated by linear regression of the plasma concentrations in the log-linear terminal phase. The clearance (Cl/F); where F represents the oral bioavailability, was calculated as dose/AUC, and the volume of distribution (Vd/F) was calculated as (Cl/F)/kel. The data is presented as a mean ± SD. The pharmacokinetic parameters were compared using Student’s t test. A P-value of <0.05 was considered significant. The relative bioavailability (RB %) was calculated as follows: RelativebioavailabilityRB%=AUCcoadimin/AUCcontrol×100

[4] = design: method as in PMID 21428247; details: cited from earlier work; remark: listed apart in the source
[5] = 10 ng/mL, 6 hrs (BT) bench top 25 ± 2°C
[6] = 10 ng/mL, 24 hrs (AS) auto-sampler at 4°C, processed samples
[7] = 10 ng/mL, FT-3 (three freeze/thaw cycles, −70 ± 10°C)
[8] = 400 ng/mL, 6 hrs (BT) bench top 25 ± 2°C
[9] = 400 ng/mL, 24 hrs (AS) auto-sampler at 4°C, processed samples
[10] = 400 ng/mL, FT-3 (three freeze/thaw cycles, −70 ± 10°C)
[11] = LUME 10 mg/kg with 97-78 70 mg/kg oral, rats
[12] = LUME 10 mg/kg oral co-administered with 97-78 70 mg/kg oral
[13] = control: LUME 10 mg/kg oral alone

- Stability in rat plasma: Accuracy (%) [1, 5]: 93.85%
- Stability in rat plasma: Accuracy (%) [1, 6]: 104.67%
- Stability in rat plasma: Accuracy (%) ([1]; 10 ng/mL, 15 days at −70°C): 100.47%
- Stability in rat plasma: Accuracy (%) [1, 7]: 98.16%
- Stability in rat plasma: Accuracy (%) [1, 8]: 95.85%
- Stability in rat plasma: Accuracy (%) [1, 9]: 100.45%
- Stability in rat plasma: Accuracy (%) ([1]; 400 ng/mL, 15 days at −70°C): 98.72%
- Stability in rat plasma: Accuracy (%) [1, 10]: 99.79%
SMILES: C=C(c1ccc(OC(C)(C)CO)cc1)C1OCC2(OO1)C1CC3CC(C1)CC2C3 (centres unmarked) [97-63]

- effect of LUME co-administration on PK parameters of 97-78 other than Tmax ([3]; 97-78 70 mg/kg with LUME 10 mg/kg oral, rats): no significant effect
SMILES: C=C(c1ccc(OC(C)(C)COC(=O)CCC(=O)O)cc1)C1OCC2(OO1)C1CC3CC(C1)CC2C3 (centres unmarked) [97-78]
- conversion into active metabolite 97-63 in vivo [2]: rapidly and completely converted
- conversion to 97-63 in plasma [4]: rapidly converted

- Stability in rat plasma: Accuracy (%) [1, 5]: 101.73%
- Stability in rat plasma: Accuracy (%) [1, 6]: 103.72%
- Stability in rat plasma: Accuracy (%) ([1]; 10 ng/mL, 15 days at −70°C): 105.73%
- Stability in rat plasma: Accuracy (%) [1, 7]: 99.48%
- Stability in rat plasma: Accuracy (%) [1, 8]: 101.03%
- Stability in rat plasma: Accuracy (%) [1, 9]: 101.51%
- Stability in rat plasma: Accuracy (%) ([1]; 400 ng/mL, 15 days at −70°C): 102.54%
- Stability in rat plasma: Accuracy (%) [1, 10]: 106.78%
- RB% (relative bioavailability = AUC coadmin/AUC control × 100) ([3]; rats): 64.41^* %
- RB% (relative bioavailability = AUC coadmin/AUC control × 100) ([3]; rats, listed as lumefantrine): 64.41%
- decrease of AUC0-∞ of orally administered LUME in presence of 97-78 ([3]; LUME 10 mg/kg with 97-78 70 mg/kg oral vs LUME alone, rats, p <0.05): 63.26%
- effect of 97-78 co-administration on Cmax of LUME [3, 11]: not significantly altered
- effect of 97-78 co-administration on Tmax of LUME [3, 11]: not significantly altered
- AUC(0-inf) [3, 12]: 11000 ± 660 ng·h/mL
- AUC(0-t) [3, 12]: 10600 ± 710 ng·h/mL
- CL/F [3, 12]: 15.2 mL/min/kg
- Cmax [3, 12]: 1920 ± 620 ng/mL
- Tmax [3, 12]: 4 ± 2.45 h
- Vd/F [3, 12]: 62.7 ± 8.4 L/kg
- half-life [3, 12]: 47.8 ± 6.48 h
- AUC(0-inf) [3, 13]: 17400 ± 3290 ng·h/mL
- AUC(0-t) [3, 13]: 16500 ± 2960 ng·h/mL
- CL/F [3, 13]: 9.83 mL/min/kg
- Cmax [3, 13]: 1810 ± 750 ng/mL
- Tmax [3, 13]: 3.75 ± 1.5 h
- Vd/F [3, 13]: 39.5 ± 6.26 L/kg
- half-life [3, 13]: 46.9 ± 6.52 h
SMILES: CCCCN(CCCC)CC(O)c1cc(Cl)cc2c1-c1ccc(Cl)cc1C2=Cc1ccc(Cl)cc1 (centres unmarked) [LUME, 2-dibutylamino-1-[2,7-dichloro-9-(4-chlorobenzylidene)-9H-fluoren-4-yl]-ethanol]

Source: paper PMC4429480, “Simultaneous quantification of proposed anti-malarial combination comprising of lumefantrine and CDRI 97–78 in rat plasma using the HPLC–ESI-MS/MS method: application to drug interaction study” (Malaria Journal, 2015)
